Measurements reported in patent publication US10272096B2, “Methods and systems of treating wounds” (priority 2013, dated 2019).

How the values were obtained:
[1] = system: U2OS cells; type: cell-based, human
Method: U2OS human osteosarcoma cells were obtained from the American Type Tissue Culture Collection (ATCC, Rockville, Md.). Cells were grown in T-75 flasks (Corning, Fisher, Pittsburgh, Pa.) in a 37° C., 5% CO2/95% air incubator using Dulbecco's Modified Eagle's Medium (DMEM) and supplemented with 10% fetal bovine serum (Mediatach, Manassas, Va.). Cells were trypsinized with TrypLE (Invitrogen Life Technologies, Carsbad, Calif.), seeded into 6-well or 96-well plates (Corning, Fisher, Pittsburgh, Pa.) and grown to confluence.
Cells were exposed to LLLT for 30 min and 1 h later received a single treatment of 5 μM NO-Cbi.
The scratch wound closure assay has been previously described (see Spitler et al., Nitrosyl-cobinamide (NO-Cbi), a new nitric oxide donor, improves wound healing through cGMP/cGMP-dependent protein kinase, Cell Signal 2013, 25(12):2374-2382). Briefly 600-700 μm wide single line scratches were mechanically generated in a cell monolayer by a 200 μl plastic tip across the length of the well. Cells from both edges of the wound migrated into the open area, which was measured at 24 h. The change in area was quantified using a custom Mat Lab script. The wound closure rate was determined by plotting changes in the wound area as a function of time.

[2] = system: lung epithelial cells, primary human lung fibroblasts, cancer cell model; assay: In vitro wound healing in several different cell systems; type: cell-based
Description: . The inventors established this optimal dose range in order to provide a reasonable dose for actual treatment of airway injury. Mechanistically, the inventors determined that improved wound healing was from increased cell migration and not cell proliferation (division). […]

[3] = system: Erk1/2; assay: Western blot analysis of phospho-Erk1/2 in U2OS cells; type: cell-based, human
Method: Cells were lysed and harvested 10 min after LLLT treatment in Laemmli buffer heated to 100° C. (BioRad, Hercules, Calif.), and lysates were sonicated and resolved on SDS-PAGE gels. The proteins were transferred to a nitrocellulose membrane (GE Healthcare Life Sciences, Pittsburgh) and blocked for 1 h with Pierce Protein-Free Blocking buffer (Thermo Scientific, Rockford, Ill.). They were incubated overnight with antibodies for phospho-ERK1/2(Thr202/Tyr203) at 1:10,000 in TBS/5% BSA (Cell Signaling Technology). Membranes were then incubated with an anti-rabbit-HRP antibody at 1:2000 for 1 h and developed using a luminol-based chemiluminescent substrate.

[4] = system: A-549 cells; assay: Mechanical scratch wound assay in A-549 cell monolayer; type: cell-based
Method: (A) Mechanical scratch wounds were generated in a monolayer of A-549 cells, and 30 hours later, the area of the wound was evaluated by custom computer-based software. At 0, 4, 9, and 24 hour post wounding, cells received fresh medium with 5 uM of NO-Cbl, Deta-NONOate, sodium nitroprusside (SNP), or fresh medium alone. (B) The normalized average wound area was determined by dividing the final wound area by the initial wound area and averaging replicates. Data represent the mean+/−SEM of at least 3 separate experiments with an n=12 in each experiment.

## nitrosyl-cobinamide [NO-Cbi]
[1]
  wound healing (normalized wound area at 24 h): enhance wound healing
  wound healing, combination with LLLT: markedly enhanced wound healing compared to either treatment alone
[2]
  in vitro wound healing: improved in vitro wound healing
[3]
  Erk1/2 activation (phosphorylation): increased Erk1/2 activation
  Erk1/2 activation, combination with LLLT: same degree of Erk1/2 activation as NO-Cbi alone
[4]
  effectiveness on a molar basis compared with other NO donors: more effective than two other NO donors
  wound healing and migration (normalized wound area): increases wound healing and migration
